Experimental data as given in patent publication US8486901B2 (priority 2009, dated 2013).
Several values for one entry are separate records, joined by “and”; a condition that tells them apart may be missing. Equal values may be shown once.

System: Kunming mice
Details: mouse, in vivo

N=C1NC(O)C2C3OC4(O)OC(C(O)C2(N1)[C@@H]4O)C3(O)COC1OC(CO)C(O)C(O)C1O (stereo partly drawn) [Formula 11-Gal-TTX, 11-galactopyranosyl-TTX]
Effect on pain (result in words): inhibitory effect on pain | Inhibition rate (%): 60.6% and 30.3% and 51.7% | Number of writhes: 12.50 ± 4.7 and 22.10 ± 6.4 and 15.30 ± 6.4
